Experimental data as given in US7341850B2, “Human LXRα variants” (Wyeth, priority 2003, dated 2008).

What was measured:
[1] = test system: LXRα-42 mRNA; experiment: Regulation of LXRα-42 mRNA expression in differentiated THP-1 cells (real-time RT-PCR); format: cell-based, human; settings: THP-1 cells differentiated with 150 nM phorbol ester for 3 days; 10 μM T0901317, 10 μM GW 3965, 10 μM Ciglitazone or 1 μM 9RA; vs vehicle; FIG. 8B
Experimental: Each amplification mixture (50 μL) contained 50 ng of cDNA, 400 nM forward primer (SEQ ID NO:11), 400 nM reverse primer (SEQ ID NO:12), 200 nM dual-labeled fluorogenic probe (SEQ ID NO:13) (Applied Biosystems), 5.5 mM MgCl2, and 1.25 units Gold Taq (Applied Biosystems). The primers amplify a portion of the LXRα sequences that is about 80 nucleotides in length. The PCR thermocycling parameters were 95° C. for 10 minutes, and 40 cycles at 95° C. for 15 seconds, and 60° C. for 1 minute. Together with the samples and no-template controls, a serially diluted cDNA standard was analyzed in parallel. All samples were analyzed for human glyceraldehyde-3-phosphate dehydrogenase (GAPDH) expression in parallel in the same run using probe and primers from predeveloped assays for GAPDH (Applied Biosystems). All of the target gene expression was normalized to the expression of GAPDH. Quantitative analysis was performed using the threshold procedure, following the manufacturer's protocol (Perkin-Elmer), and relative amounts were calculated from the standard curve.
Experiments were performed to determine whether agonists of wild type LXRα could also regulate the expression of LXRα variants. In these experiments, THP-1 cells were obtained from the American Type Culture Collection (ATCC) and cultured in RPMI medium containing 10% fetal bovine serum (FBS). For gene expression analysis in differentiated THP-1 cells, the THP1 cells were incubated in RPMI medium supplemented with 10% lipoprotein-deficient serum (LPDS) (Intracel Corp, Rockville, Md.) and treated with 150 nM phorbol ester for 3 days followed by treatment with LXR, RXR, or Peroxisome Proliferator-activated Receptor γ (PPARγ) agonist compounds, specifically with vehicle only (control), 10 μM T0901317, 10 μM GW 3965, 10 μM Ciglitazone, or 1 μM 9RA. The primers and TaqMan probe for the real-time RT-PCR was described as in Example 4.

[2] = test system: LXRα-64 mRNA; experiment: Regulation of LXRα-64 mRNA expression in differentiated THP-1 cells (real-time RT-PCR); format: cell-based, human; settings: THP-1 cells differentiated with 150 nM phorbol ester for 3 days; 10 μM T0901317, 10 μM GW 3965, 10 μM Ciglitazone or 1 μM 9RA; vs vehicle; FIG. 8A
Experimental: Experiments were performed to determine whether agonists of wild type LXRα could also regulate the expression of LXRα variants. In these experiments, THP-1 cells were obtained from the American Type Culture Collection (ATCC) and cultured in RPMI medium containing 10% fetal bovine serum (FBS). For gene expression analysis in differentiated THP-1 cells, the THP1 cells were incubated in RPMI medium supplemented with 10% lipoprotein-deficient serum (LPDS) (Intracel Corp, Rockville, Md.) and treated with 150 nM phorbol ester for 3 days followed by treatment with LXR, RXR, or Peroxisome Proliferator-activated Receptor γ (PPARγ) agonist compounds, specifically with vehicle only (control), 10 μM T0901317, 10 μM GW 3965, 10 μM Ciglitazone, or 1 μM 9RA.

[3] = test system: pGL3-LXRα-Luc reporter (LXR response element of LXRα promoter); experiment: LXRα promoter (LXRE) luciferase reporter gene assay in transfected HEK 293 cells; format: cell-based, human; settings: variant co-transfected with hRXRα and reporter, 10 μM T0901317, 24 hours, compared with co-transfected native LXRα, FIG. 9
Excerpt: Human LXRα promoter (SEQ ID NO:14) was amplified by PCR using information from the published LXRα genomic structure and sequence (GenBank accession no. AC090589. A fragment spanning from -2660 to -2363 (relative to the transcription start site from exon 1) of LXRα promoter which contains the LXR response element ([NT] ID NO:20) ([…] et al. 2001, Mol. Cell. Biol. 21, 7558-7568 and Whitney et al., 2001, J. Biol. Chem. 276, 43509-43515) of LXRα was subcloned into pGL3 basic plasmid to create pGL-3-LXRα-Luc. The GenBank accession number of the LXRα “native” sequence used as a reference for the experiments and analysis disclosed herein is Genbank accession number for human LXRα is BC008819. Coding regions of human LXRα, and RXRα (GenBank accession number BC007925) were amplified by RT-PCR according to the sequences in GenBank and subcloned into pCMV/myc/nuc expression vectors (Invitrogen, Carlsbad, Calif.). The new LXRα-[…] coding region was subcloned into pCMV/myc/nuc expression vectors. HEK 293 cells were grown in Dulbecco's modified Eagle's medium (DMEM) containing 10% FBS. Transfections were performed in triplicate in 24 well plates using Lipofectamine 2000 (Invitrogen). […] The cells were harvested, analyzed, and the extracts were assayed for luciferase and β-galactosidase activity in a microplate luminometer/photometer reader (Lucy-1; Anthos, Salzburg, Austria). […]

[4] = test system: SREBP-c1 (an LXR target gene); experiment: SREBP-1C expression in transfected HEK 293 cells (real-time quantitative PCR); format: cell-based; settings: cotransfected with human RXRα, TO901317 and/or 9RA, 48 hours, compared to wild type LXRα with RXRα or empty vector with RXRα, FIG. 11
Experimental: (§1) In these experiments, coding regions of human LXRα, RXRα, and the LXRα variant (LXRα-64) were amplified by RT-PCR. The PCR products were subcloned into pCMV/myc/nuc expression vectors (Invitrogen, Carlsbad, Calif.) and used in the experiments described infra.
(§2) Expression experiments were conducted in HEK 293 cells that were propagated in Dulbecco's modified Eagle's medium (DMEM) containing 10% FBS. The cultured cells were transfected with either the expression vector containing a sequence encoding LXRα (wild type) or an expression vector encoding LXRα-64. All samples were co-transfected with an expression vector encoding an RXRα sequence. Transfections were performed in triplicate in 24 well plates using the Lipofectamine 2000 (Invitrogen, Carlsbad, Calif.). Each well was transfected with 200 ng of the LXRα expression vector (LXRα), the LXRα-64 expression vector (L64), or control plasmid (pCMV) along with 200 ng of human RXRα expression vector (RXRα). Additions to each well were adjusted to contain constant amounts of DNA and of pCMV expression vector. […] The levels of gene expression were determined with Real-time quantitative PCR assays using an Applied Biosystems 7700 sequence detector.

[5] = test system: ABCA1; experiment: ABCA1 expression in transfected HEK 293 cells (real-time quantitative PCR); format: cell-based, human; settings: cotransfected with RXRα, FIG. 12
Experimental: as §1, §2

| Molecule | expression of LXRα-42 mRNA [1] | expression of LXRα-64 mRNA [2] | LXR ligand-dependent activation of reporter gene [3] | basal, LXR ligand-dependent, and LXR+RXR ligand-dependent induction of SREBP-c1 expression [4] | LXR as well as LXR+RXR-ligand dependent induction of ABCA1 expression ([5]; TO901317 and/or 9RA, 48 hours, compared to native LXRα and RXRα or empty vector with RXRα) | basal expression of ABCA1 ([5]; no ligand) |
| --- | --- | --- | --- | --- | --- | --- |
| O=C(O)Cc1cccc(OCCCN(Cc2cccc(C(F)(F)F)c2Cl)CC(c2ccccc2)c2ccccc2)c1 [GW3965, 3-(3-(2-chloro-3-trifluoromethylbenzyl-2,2-diphenylethylamino)propoxy)phenylacetic acid] | increased | increased |  |  |  |  |
| CC1=C(/C=C/C(C)=C\C=C\C(C)=C\C(=O)O)C(C)(C)CCC1 [9-cis retinoic acid] | increased | increased |  |  |  |  |
| O=S(=O)(c1ccccc1)N(CC(F)(F)F)c1ccc(C(O)(C(F)(F)F)C(F)(F)F)cc1 [T0901317, N-(2,2,2,-trifluoro-ethyl)-n-[4-(2,2,2,-trifluoro-1-hydroxy-1-trifluoromethyl-ethyl)-phenyl]-benzenesulfonamide] | increased | increased |  |  |  |  |
| LXRα-64: human LXRα splice variant with an extra 64 amino acids in its ligand binding domain (SEQ ID NO:4) (protein, listed as Homo sapiens) MSLWLGAPVPDIPPDSAVELWKPGAQDASSQAQGGSSCILREEARMPHSAGGTAGVGLEAAEPTALLTRAEPPSEPTEIRPQKRKKGPAPKMLGNELCSVCGDKASGFHYNVLSCEGCKGFFRRSVIKGAHYICHSGGHCPMDTYMRRKCQECRLRKCRQAGMREECVLSEEQIRLKKLKRQEEEQAHATSLPPRRSSPPQILPQLSPEQLGMIEKLVAAQQQCNRRSFSDRLRVTPWPMAPDPHSREARQQRFAHFTELAIVSVQEIVDFAKQLPGFLQLSREDQIALLKTSAIEVAGEGQGMKGEAEWDYLWEGPPDIELGEPNLLGSRDEENRPPWKRPCSKTSPPSPRLRFAACVQVMLLETSRRYNPGSESITFLKDFSYNREDFAKAGLQVEFINPIFEFSRAMNELQLNDAEFALLIAISIFSADRPNVQDQLQVERLQHTYVEALHAYVSIHHPHDRLMFPRMLMKLVSLRTLSSVHSEQVFALRLQDKKLPPLLSEIWDVHE |  |  | sharply decreased | sharply decreased | less | not affected |
